What was measured:
[1] = biological target: T1, 5-lipoxygenase (Cavia porcellus, UniProt A0A286X958); test: 5-Lipoxygenase inhibitory activity (conversion of 14C-arachidonic acid to 5-HETE) in guinea pig peritoneal exudate cells; format: cell-based, guinea pig (Hartley strain); conditions: read-out: inhibition ratio (%) of 5-lipoxygenase activity; for inhibition at 0.3 µM: concentration 3 × 10^-7 M; for inhibition at 1 µM: concentration 10^-6 M; for inhibition at 0.1 µM: concentration 10^-7 M
T1 construct: endogenous in cells; host or cells: guinea pig (Hartley strain) casein-elicited peritoneal exudate cells, intact cell suspension
T1 sequence (A0A286X958 1-674): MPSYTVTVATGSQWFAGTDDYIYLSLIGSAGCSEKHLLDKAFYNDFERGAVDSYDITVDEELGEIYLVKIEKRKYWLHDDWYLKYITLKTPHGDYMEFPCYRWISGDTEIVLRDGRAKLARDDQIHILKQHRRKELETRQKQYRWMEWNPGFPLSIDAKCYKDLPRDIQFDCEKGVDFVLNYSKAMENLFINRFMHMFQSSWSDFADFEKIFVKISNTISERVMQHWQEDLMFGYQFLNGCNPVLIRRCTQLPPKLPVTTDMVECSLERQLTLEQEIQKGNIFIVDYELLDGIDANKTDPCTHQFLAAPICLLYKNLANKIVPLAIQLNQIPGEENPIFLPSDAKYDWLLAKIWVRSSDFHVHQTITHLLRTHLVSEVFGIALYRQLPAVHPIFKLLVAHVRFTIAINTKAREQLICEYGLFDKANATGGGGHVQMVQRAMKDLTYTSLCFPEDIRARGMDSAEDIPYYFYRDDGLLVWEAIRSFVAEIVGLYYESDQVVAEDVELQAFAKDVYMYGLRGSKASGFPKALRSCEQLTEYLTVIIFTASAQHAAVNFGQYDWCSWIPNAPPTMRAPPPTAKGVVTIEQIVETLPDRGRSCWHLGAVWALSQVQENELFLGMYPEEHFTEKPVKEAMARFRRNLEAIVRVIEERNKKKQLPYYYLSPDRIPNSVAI
Protocol: 5-Lipoxygenase inhibitory activity of the present compounds was determined by a method according to procedures described in "J. Biol. Chem., Vol. 256, pages 4156-4159, (1981, Ibid. Vol. 258, pages 5754-5758 (1983).
(1) Preparation of Test Cells
A guinea pig (Hartley strain) (500-650 g body weight) was intraperitoneally administered with 2%-casein solution in 3/50 the volume of body weight. 14 Hours after the administration, the animal was sacrificed by bleeding and the peritoneal cavity was washed with Dulbecco's phosphate buffered saline (PBS) containing 3 U/ml of heparin and the exudate cells were harvested. The sample of cells was washed twice with Dulbecco's PBS (-), then the cells were suspended in Dulbecco's PBS (-), containing 1 mM of calcium chloride and 5.5 mM of glucose, so as to make a suspension having the concentration of 2.5×10^7 cells/ml.
To 0.2 ml of the above-mentioned cell suspension was added 10^-5 M of Indomethacine, and incubated at 30° C. for 2 minutes. Each of the appropriate concentrations of test compounds was added to the suspension respectively, further incubated for 2 minutes. Next, 10 μm of Ionophore A23187 (manufactured by Calbiochem-Behring, San Diego, Calif., U. S. A) was added to the suspension, further, 10 μm of ^14 C-arachidonic acid (manufactured by Amersham Japan, Ltd., Tokyo, Japan) was added and initiated the reaction. 3 Minutes after the initiation of the reaction, 0.1 ml of 0.2M-citric acid was added so as to terminate the reaction. 1.2 Milliliters of ethyl acetate was added to the reaction mixture and shaked for 5 minutes. The reaction mixture was centrifuged at 3,000 rpm for 5 minutes so as to separate the organic layer from the aqueous layer. 1 Milliliter of the organic layer (the upper layer) was dehydrated by passing through a mini-column packed with anhydrous sodium sulfate. The dehydrated organic layer was dried under nitrogen gas stream. The residue obtained was dissolved in ethyl acetate, and the total amount of the ethyl acetate solution was spotted onto thin layer chromochromatography (TCL) plate (Art. 11845 manufactured by E. Merck A. G.). The TCL was carried out with a mixed solvent of diethyl ether:petroleum:ether:acetic acid (50:50:1 volume/volume), then the radioactive metabolites on the plate were detected by using "Ultrafilm ^3 H" (a trademark for a X-ray film, manufactured by LKB Co.). Each fractions corresponding to the metabolites was scraped in to a scintillation vial, and 5 ml of "Scintilator ACS-II" (manufactured by Amersham Japan, Ltd.), was added then the radio-activity was determined by means of a liquid scintillation counter.

[2] = tested on: histamine release on anaphylaxis in abdominal cavity; test: Histamine releasing inhibition test on anaphylaxis in abdominal cavity of rats; format: in vivo, rat (Sprague-Dawley strain); conditions: oral, 3 hours before anaphylaxis; dose not given
Protocol: SRS-A and histamine releasing inhibition test on anaphylaxis in abdominal cavity of rats.
Male or female rats (Sprague-Dawley strain, delivered from Charles River, Japan Ltd., Tokyo) of 6-7 week age were used as the test animals. The test animals were devided into a group consisting of 6 animals in one group depending on their body weight. The animals were fasted overnight. The test was conducted by a method according to P. T. Orange et al.: "J. Immunol., Vol. 105", pages 1087-1095 (1970).
1 Milliliter each of twofold diluted anti-ovalbumin serm of rat was intraperitoneally injected to each of the test animal so as to have the rat sensitized. 2 Hours after the sensitization, 5 ml of Tyrode's solution containing 2 mg of ovalbumin and 250 micrograms of heparin sodium was intraperitoneally administered to the test animal to cause anaphylaxis. 5 Minutes after, the test animal was stunned by the blow on the head and was exsanguinated and killed by cervical incision. Additional 5 minutes later, the abdominal fluid was collected from the opening of the abdomen. The fluid collected was centrifuged at 4° C., first at 800 rpm, then at 2,500 rpm and the supernatant was collected, and stored at -80° C. until the bioassay was conducted. […]
The amount of SRS-A and histamine contained in the collected abdominal fluid was measured by a method similar to that employed in Pharmacological test-2.
Bio-assay of the collected abdominal fluid was conducted by using ileum of guinea pig which was treated with atropine. […] The isotonic contraction of the piece of the ileum was measured at 0.5 g of load by using an isotonic transducer "TD-112S" (manufactured by Nihon Koden Co., Ltd.). The measurements were recorded on an ink-writing recorder.
After stabilization of the contraction reaction due to histmine, the amount of histamine was measured quantitatively by observing the contraction of the piece of the ileum shown within 30 seconds after addition of 0.05-0.4 ml of the abdominal fluid. […]

Compound | inhibition at 0.3 µM [1] [%] | inhibition at 1 µM [1] [%] | inhibition at 0.1 µM [1] [%] | Inhibitory rate (%) Histamine [2] [%]
COC1=CC(=O)C(OC)=C(CCCCCC2=C(OC)C(=O)C=C(OC)C2=O)C1=O [Test Compound No. 9, 2,2'-Pentamethylenebis(3,6-dimethoxy-1,4-benzoquinone)] | 55 | 74 | 38 | -3.6
COC1=CC(=O)C(OC)=C(CCCCCCCCCC2=C(OC)C(=O)C=C(OC)C2=O)C1=O [Test Compound No. 13, 2,2'-Nonamethylenebis(3,6-dimethoxy-1,4-benzoquinone)] | 72 | 91 | 43 | 10.9
COC1=CC(=O)C(OC)=C(CCCCCC#CCCCCCC2=C(OC)C(=O)C=C(OC)C2=O)C1=O [Test Compound No. 16, 2,2'-(6-Dodecynylene)bis(3,6-dimethoxy-1,4-benzoquinone)] | 84 | 87 | 61 | 8.0
